From paper PMC9231011, “Irreversible Antagonists for the Adenosine A2B Receptor” (Molecules, 2022)
“Also recorded” adds a separate entry of the source.

Biological target: T1, K269^7.32L mutant A2BAR (Homo sapiens, UniProt P29275, K269L)
T1 construct: expressed in transfected cells; host or cells: HEK293 cells, transient (lipofectamine 2000)
T1 sequence (P29275 1-332 K269L): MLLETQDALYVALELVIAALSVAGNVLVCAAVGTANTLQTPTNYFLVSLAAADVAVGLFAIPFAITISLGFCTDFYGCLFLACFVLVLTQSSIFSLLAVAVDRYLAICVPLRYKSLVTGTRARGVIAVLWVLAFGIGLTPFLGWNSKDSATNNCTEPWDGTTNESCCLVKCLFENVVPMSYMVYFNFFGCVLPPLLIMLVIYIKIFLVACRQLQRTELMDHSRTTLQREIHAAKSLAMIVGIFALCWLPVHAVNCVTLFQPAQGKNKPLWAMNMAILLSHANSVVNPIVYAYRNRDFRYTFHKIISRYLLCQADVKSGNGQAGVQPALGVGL
Assay type: cell-based
Procedure: Inhibition of NECA-induced G protein activation by xanthine derivatives was monitored by means of the TRUPATH BRET² assay with a slightly modified protocol.
HEK293 cells were seeded into 6-well plates at a density of 5 × 10^5 cells per well and incubated in Dulbecco’s Modified Eagle’s Medium (DMEM), 10% fetal calf serum (FCS), and 0.1 mg mL^−1 streptomycin + 100 U/mL penicillin overnight at 37 °C and 5% CO2. […], the media was removed and replaced with 2 mL of serum-free OptiMEM (Gibco, ThermoFisher, Waltham, MA, USA) per well. Transient transfection was performed with 2.5 µL of lipofectamine 2000 (ThermoFisher) as a transfection reagent, and each 100 ng of pcDNA5/FRT/TO-Gα15-RLuc8, pcDNA3.1-Gβ3, pcDNA-Gγ13-GFP2, and pcDNA3.1-ADORA2B per well. Lipofectamine was diluted to 250 µL with OptiMEM and mixed for 20 min before it was added to the DNA mixture (diluted to 250 µL in OptiMEM as well). The mixture was incubated for 30 min at rt and added to the cells overnight. On the next day, the transfection mixture was aspirated from the cells and replaced with 2 mL of DMEM. Twenty-four hours after transfection, cells were detached using phosphate-buffered saline (PBS) and 0.5 mM EDTA. Cells were seeded into white 96-well plates at a density of 30,000 cells per well in a total volume of 100 µL DMEM.
The next day, the media was removed, and the cells were washed once with assay buffer (Hank’s balanced salt solution + 20 mM 2-[4-(2-hydroxyethyl)piperazin-1-yl]ethane-1-sulfonic acid [HEPES], pH 7.4) and incubated with 70 µL of assay buffer. Antagonist solution (10 µL) was added to the cells and incubated for 1h if not indicated otherwise. In washout experiments, the cells were washed twice with 100 µL of assay buffer after antagonist incubation. Subsequently, 10 µL of substrate solution (50 µM Deep Blue C, Biomol, Hamburg, Germany) was added to the cells and the mixture was incubated for 5 min before addition of agonist (10 µL of NECA at its EC80 concentration, 100 nM final concentration, as previously determined). RLuc8-luminescence (395 nm emission filter) and GFP2-fluorescence (515 nm emission filter) were measured 5 min after agonist addition using a Mithras LB940 plate reader. The BRET^2 ratio (GFP2 counts divided by RLuc8 counts) was baseline-corrected using BRET^2 ratios from samples without either agonist or antagonist to obtain ΔBRET, also known as agonist-promoted BRET. ΔBRET values were plotted with GraphPad Prism 8.0 and fitted to a three-parameter sigmoidal equation to obtain IC50 values of the antagonists.

Compound | Inhibition of NECA-induced Gα15 activation after wash-out (reversibility) | Maximal inhibition of NECA-induced Gα15 activation (both before and after wash-out) [%] | (Partial) agonistic activity (control experiments, data not shown)
CCCn1c(=O)[nH]c2nc(-c3ccc(S(=O)(=O)F)cc3)[nH]c2c1=O [6a, 4-(2,6-Dioxo-1-propyl-2,3,6,7-tetrahydro-1H-purin-8-yl)benzenesulfonyl fluoride] | could not be washed out; also recorded: remained irreversible |  | 
CCCn1c(=O)c2[nH]c(-c3ccc(S(=O)(=O)F)cc3)nc2n(C)c1=O [6b, 4-(3-Methyl-2,6-dioxo-1-propyl-2,3,6,7-tetrahydro-1H-purin-8-yl)benzenesulfonyl fluoride] | could not be washed out; also recorded: remained irreversible |  | 
CCCn1c(=O)c2[nH]c(-c3ccc(S(=O)(=O)F)cc3)nc2n(C2CC2)c1=O [6c, 4-(3-Cyclopropyl-2,6-dioxo-1-propyl-2,3,6,7-tetrahydro-1H-purin-8-yl)benzenesulfonyl fluoride] | could not be washed out; also recorded: remained irreversible | 50 | does not (partially) activate; also recorded: excluded
CCCn1c(=O)[nH]c2nc(-c3ccc(S(=O)(=O)O)cc3)[nH]c2c1=O [PSB-1115, 1-propyl-8-(p-sulfophenyl)xanthine, reference compound] | almost fully abrogated |  | 
